Assay results published in US20060223827A1, “Bioreductively activated stilbene prodrugs” (Siemens Aktiengesellschaft, priority 2003, published 2006).

Tests used:
[1] = Radiolysis (steady state): release of combretastatin A4 after one-electron reduction; format: physicochemical; settings: isopropanol/water 50:50, N2O-saturated, 60Co source 3.9 Gy min^−1, HPLC
Description: In the hypoxic environments of solid tumours, prodrugs can be reduced by one-electron processes that are inhibited in the normoxic environments of normal tissues.
Compounds were dissolved in an isopropanol/water mixture (50:50) at a concentration of 50 μM or below. Solutions, in gas-tight syringes, were saturated with nitrous oxide before irradiation in a ^60Co source at a dose rate of 3.9 Gy min^−1 (as determined by Fricke dosimetry: H. Fricke and E. J. Hart, “Chemical Dosimetry” in Radiation Dosimetry Vol. 2 (F. H. Attrix and W. C. Roesch. Eds.), pp 167-239. Academic Press New York, 1966.). Solutions were analysed for released drug by HPLC. The radiation chemical yields (G-values) of combretastatin A4 release obtained in this assay for selected example compounds are shown in Table 1.

SMILES	G (radiation chemical yield of combretastatin A4 release) [1]	melting point
COc1ccc(/C=C\c2cc(OC)c(OC)c(OC)c2)cc1OCc1c2c(n(C)c1C)C(=O)C=C(N1CCN(C)CC1)C2=O [Example 5, 3-((3,4,4′,5-Tetramethoxy-(Z)-stilbene-3′-yl)oxy)methyl-1,2-dimethyl-5-(4 methylpiperazin-1-yl)indole-4,7-dione]	0.34 µmol/J	–
COc1ccc(/C=C\c2cc(OC)c(OC)c(OC)c2)cc1OCc1ccc([N+](=O)[O-])s1 [Example 1, 1-(4-Methoxy-3-(5-nitrothien-2-yl)methoxy)phenyl-2-(3,4,5-trimethoxy)phenyl-Z-ethene]	0.23 µmol/J	88 to 90 °C
COC1=CC(=O)c2c(c(COc3cc(/C=C\c4cc(OC)c(OC)c(OC)c4)ccc3OC)c(C)n2C)C1=O [Example 4, 5-Methoxy-3-((3,4,4′,5-tetramethoxy-(Z)-stilbene-3′-yl)oxy)methyl-1,2-dimethylindole-4,7-dione]	0.44 µmol/J	192 to 194 °C
COc1ccc(/C=C\c2cc(OC)c(OC)c(OC)c2)cc1OC(C)c1ccc([N+](=O)[O-])s1 (stereo not drawn) [Example 2, 1-(4-Methoxy-3-(1-(5-nitrothien-2-yl)ethoxy))phenyl-2-(3,4,5-trimethoxy)phenyl-Z-ethene]	0.33 µmol/J	–
